The source of these data is patent US11530210B2, “Substituted heteroaromatic pyrazolo-pyridines and their use as GLUN2B receptor modulators” (JANSSEN PHARMACEUTICA NV, priority 2019, dated 2022).

The structures appear in SMILES notation. Counter-ions that a name gives are not always drawn.

The assay addresses T1, human GluN1/GluN2B NMDA receptors (Homo sapiens, UniProt Q13224).
T1 construct: expressed in transfected cells
Nature of the assay: Calcium flux (FLIPR) assay on cloned human NR1/GluN2B ion channels expressed in mammalian cells (standard and HTS variants). In kind it is cell-based. Conditions: cells expressing human GluN1/GluN2B, glutamate and glycine co-agonists. In short, it runs like this:
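Calcium influx read by FLIPR after co-agonist addition (glycine 10 μM, glutamate near EC40) following 5 min compound preincubation, with signal normalized to control wells.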

T1 sequence (Q13224 27-1484, other chains not shown): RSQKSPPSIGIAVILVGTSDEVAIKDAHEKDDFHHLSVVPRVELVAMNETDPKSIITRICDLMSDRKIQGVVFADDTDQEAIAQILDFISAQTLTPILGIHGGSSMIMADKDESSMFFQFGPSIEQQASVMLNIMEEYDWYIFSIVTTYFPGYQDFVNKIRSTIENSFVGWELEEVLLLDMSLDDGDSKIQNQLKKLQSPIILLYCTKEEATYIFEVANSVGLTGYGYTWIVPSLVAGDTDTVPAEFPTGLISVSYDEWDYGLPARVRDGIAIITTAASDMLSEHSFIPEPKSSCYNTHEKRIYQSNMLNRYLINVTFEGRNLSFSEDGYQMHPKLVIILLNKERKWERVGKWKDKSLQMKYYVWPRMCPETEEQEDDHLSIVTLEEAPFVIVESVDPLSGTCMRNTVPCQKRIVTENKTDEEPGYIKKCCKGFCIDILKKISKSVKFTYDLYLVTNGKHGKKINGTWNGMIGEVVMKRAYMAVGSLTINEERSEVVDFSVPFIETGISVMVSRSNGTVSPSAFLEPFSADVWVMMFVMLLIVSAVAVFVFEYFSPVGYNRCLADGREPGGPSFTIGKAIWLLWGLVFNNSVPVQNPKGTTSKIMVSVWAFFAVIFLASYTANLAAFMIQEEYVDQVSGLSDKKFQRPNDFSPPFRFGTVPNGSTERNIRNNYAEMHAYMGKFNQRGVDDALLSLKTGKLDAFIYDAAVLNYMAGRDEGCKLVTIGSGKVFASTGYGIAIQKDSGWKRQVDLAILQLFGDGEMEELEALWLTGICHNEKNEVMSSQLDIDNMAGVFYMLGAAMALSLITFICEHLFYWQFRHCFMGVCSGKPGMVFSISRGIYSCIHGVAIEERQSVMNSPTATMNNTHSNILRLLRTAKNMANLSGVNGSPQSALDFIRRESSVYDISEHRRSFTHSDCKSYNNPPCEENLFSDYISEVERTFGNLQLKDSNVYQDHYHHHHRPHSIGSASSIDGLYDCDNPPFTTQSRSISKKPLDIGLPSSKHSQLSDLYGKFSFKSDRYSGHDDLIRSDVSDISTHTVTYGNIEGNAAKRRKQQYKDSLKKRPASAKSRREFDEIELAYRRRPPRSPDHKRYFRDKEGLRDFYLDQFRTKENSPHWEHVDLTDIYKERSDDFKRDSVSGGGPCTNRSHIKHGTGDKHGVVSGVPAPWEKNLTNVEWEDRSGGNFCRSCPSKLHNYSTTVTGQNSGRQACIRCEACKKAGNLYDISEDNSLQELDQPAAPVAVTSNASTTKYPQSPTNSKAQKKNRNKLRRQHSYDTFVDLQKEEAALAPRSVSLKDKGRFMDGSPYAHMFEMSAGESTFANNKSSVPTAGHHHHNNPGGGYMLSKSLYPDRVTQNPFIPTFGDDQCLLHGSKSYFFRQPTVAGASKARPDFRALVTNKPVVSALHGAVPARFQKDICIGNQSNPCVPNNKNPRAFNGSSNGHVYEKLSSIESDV

With `Fc1cncc(Cn2ncc3ncc(-c4cccc(OC(F)F)c4)cc32)c1` [Example 159, 6-[3-(Difluoromethoxy)phenyl]-1-[(5-fluoro-3-pyridyl)methyl]pyrazolo[4,3-b]pyridine], the half-inhibitory concentration (IC50) (usually the concentration at which inhibition is half-maximal) worked out at 249 nM. Then `Cc1cncc(Cn2ncc3ncc(-c4cccc(C(C)(F)F)c4)cc32)c1` [Example 160, 6-[3-(1,1-Difluoroethyl)phenyl]-1-[(5-methyl-3-pyridyl)methyl]pyrazolo[4,3-b]pyridine], with 112 nM; and `CC(F)(F)c1cccc(-c2cnc3cnn(Cc4cncc(F)c4)c3c2)c1` [Example 161, 6-[3-(1,1-Difluoroethyl)phenyl]-1-[(5-fluoro-3-pyridyl)methyl]pyrazolo[4,3-b]pyridine], with 40 nM. Under `FC(F)(F)c1cccc(-c2cnc3cnn(Cc4ccccn4)c3c2)c1` [Example 162, 1-(2-Pyridylmethyl)-6-[3-(trifluoromethyl)phenyl]pyrazolo[4,3-b]pyridine] stands 930 nM; under `FC(F)(F)c1cccc(-c2cnc3cnn(Cc4cccnc4)c3c2)c1` [Example 163, 1-(3-Pyridylmethyl)-6-[3-(trifluoromethyl)phenyl]pyrazolo[4,3-b]pyridine hydrochloride salt], 90 nM. Then `FC(F)(F)c1cccc(-c2cnc3cnn(Cc4ccncc4)c3c2)c1` [Example 164, 1-(4-Pyridylmethyl)-6-[3-(trifluoromethyl)phenyl]pyrazolo[4,3-b]pyridine hydrochloride salt], with 798 nM; and `Cc1ccc(Cn2ncc3ncc(-c4cccc(C(F)(F)F)c4)cc32)cn1` [Example 165, 1-[(6-Methyl-3-pyridyl)methyl]-6-[3-(trifluoromethyl)phenyl]pyrazolo[4,3-b]pyridine], with 2170 nM; and `Cc1ncccc1Cn1ncc2ncc(-c3cccc(C(F)(F)F)c3)cc21` [Example 166, 1-[(2-Methyl-3-pyridyl)methyl]-6-[3-(trifluoromethyl)phenyl]pyrazolo[4,3-b]pyridine], with 870 nM. For `Cc1cncc(Cn2ncc3ncc(-c4cccc(C(F)(F)F)c4)cc32)c1` [Example 167, 1-[(5-Methyl-3-pyridyl)methyl]-6-[3-(trifluoromethyl)phenyl]pyrazolo[4,3-b]pyridine], the IC50 stood at 250 nM. Under `Cc1ccncc1Cn1ncc2ncc(-c3cccc(C(F)(F)F)c3)cc21` [Example 168, 1-[(4-Methyl-3-pyridyl)methyl]-6-[3-(trifluoromethyl)phenyl]pyrazolo[4,3-b]pyridine trifluoroacetate salt] stands 161 nM; under `Fc1ccc(Cn2ncc3ncc(-c4cccc(C(F)(F)F)c4)cc32)cn1` [Example 169, 1-[(6-Fluoro-3-pyridyl)methyl]-6-[3-(trifluoromethyl)phenyl]pyrazolo[4,3-b]pyridine], 234 nM; under `Fc1ncccc1Cn1ncc2ncc(-c3cccc(C(F)(F)F)c3)cc21` [Example 170, 1-[(2-Fluoro-3-pyridyl)methyl]-6-[3-(trifluoromethyl)phenyl]pyrazolo[4,3-b]pyridine], 1040 nM. Then `Fc1cncc(Cn2ncc3ncc(-c4cccc(C(F)(F)F)c4)cc32)c1` [Example 171, 1-[(5-Fluoro-3-pyridyl)methyl]-6-[3-(trifluoromethyl)phenyl]pyrazolo[4,3-b]pyridine], with 212 nM; and `COc1ncccc1Cn1ncc2ncc(-c3cccc(C(F)(F)F)c3)cc21` [Example 172, 1-[(2-Methoxy-3-pyridyl)methyl]-6-[3-(trifluoromethyl)phenyl]pyrazolo[4,3-b]pyridine trifluoroacetate salt], with 7780 nM; and `COc1cncc(Cn2ncc3ncc(-c4cccc(C(F)(F)F)c4)cc32)c1` [Example 173, 1-[(5-Methoxy-3-pyridyl)methyl]-6-[3-(trifluoromethyl)phenyl]pyrazolo[4,3-b]pyridine], with 210 nM. Under `FC(F)(F)c1cccc(-c2cnc3cnn(Cc4ccc(C(F)(F)F)nc4)c3c2)c1` [Example 174, 6-[3-(Trifluoromethyl)phenyl]-1-[[6-(trifluoromethyl)-3-pyridyl]methyl]pyrazolo[4,3-b]pyridine] stands 11900 nM. With `FC(F)(F)c1cncc(Cn2ncc3ncc(-c4cccc(C(F)(F)F)c4)cc32)c1` [Example 175, 6-[3-(Trifluoromethyl)phenyl]-1-[[5-(trifluoromethyl)-3-pyridyl]methyl]pyrazolo[4,3-b]pyridine], the concentration for half-maximal inhibition (IC50) worked out at 2300 nM. Under `FC(F)(F)c1cccc(-c2cnc3cnn(Cc4cnccc4C(F)(F)F)c3c2)c1` [Example 176, 6-[3-(Trifluoromethyl)phenyl]-1-[[4-(trifluoromethyl)-3-pyridyl]methyl]pyrazolo[4,3-b]pyridine] stands 1300 nM; under `Cc1cc(-c2cnc3cnn(Cc4cccnc4)c3c2)ccc1F` [Example 177, 6-(4-Fluoro-3-methyl-phenyl)-1-(3-pyridylmethyl)pyrazolo[4,3-b]pyridine], 23 nM. Under `Cc1cc(-c2cnc3c(F)nn(Cc4cccnc4)c3c2)ccc1F` [Example 178, 3-Fluoro-6-(4-fluoro-3-methyl-phenyl)-1-(3-pyridylmethyl)pyrazolo[4,3-b]pyridine] stands 26 nM; under `Cc1cc(-c2cnc3cnn(Cc4cccnc4C)c3c2)ccc1F` [Example 179, 6-(4-Fluoro-3-methyl-phenyl)-1-[(2-methyl-3-pyridyl)methyl]pyrazolo[4,3-b]pyridine], 507 nM.

Regarding `Cc1cncc(Cn2ncc3ncc(-c4ccc(F)c(C)c4)cc32)c1` [Example 180, 6-(4-Fluoro-3-methyl-phenyl)-1-[(5-methyl-3-pyridyl)methyl]pyrazolo[4,3-b]pyridine trifluoroacetate salt], the IC50 worked out at 62 nM. Under `Cc1cc(-c2cnc3cnn(Cc4cnccc4C)c3c2)ccc1F` [Example 181, 6-(4-Fluoro-3-methyl-phenyl)-1-[(4-methyl-3-pyridyl)methyl]pyrazolo[4,3-b]pyridine trifluoroacetate salt] stands 113 nM. For the molecule `Cc1cc(-c2cnc3cnn(Cc4ccc(F)nc4)c3c2)ccc1F` [Example 182, 6-(4-Fluoro-3-methyl-phenyl)-1-[(6-fluoro-3-pyridyl)methyl]pyrazolo[4,3-b]pyridine], the half-inhibitory concentration (IC50) stood at 64 nM. Under `Cc1cc(-c2cnc3cnn(Cc4cncc(F)c4)c3c2)ccc1F` [Example 183, 6-(4-Fluoro-3-methyl-phenyl)-1-[(5-fluoro-3-pyridyl)methyl]pyrazolo[4,3-b]pyridine] stands 21 nM; under `Cc1ccncc1Cn1ncc2ncc(-c3cc(F)cc(F)c3)cc21` [Example 184, 6-(3,5-Difluorophenyl)-1-[(4-methyl-3-pyridyl)methyl]pyrazolo[4,3-b]pyridine trifluoroacetate salt], 68 nM. Then `Fc1cncc(Cn2ncc3ncc(-c4cc(F)cc(F)c4)cc32)c1` [Example 185, 6-(3,5-Difluorophenyl)-1-[(5-fluoro-3-pyridyl)methyl]pyrazolo[4,3-b]pyridine], with 45 nM.

`Fc1ccc(-c2cnc3cnn(Cc4ccccn4)c3c2)cc1F` [Example 186, 6-(3,4-Difluorophenyl)-1-(2-pyridylmethyl)pyrazolo[4,3-b]pyridine trifluoroacetate salt]: the IC50 amounted to 2520 nM.

For `Fc1ccc(-c2cnc3cnn(Cc4cccnc4)c3c2)cc1F` [Example 187, 6-(3,4-Difluorophenyl)-1-(3-pyridylmethyl)pyrazolo[4,3-b]pyridine trifluoroacetate salt], the IC50 is 218 nM. Under `Cc1ncccc1Cn1ncc2ncc(-c3ccc(F)c(F)c3)cc21` [Example 188, 6-(3,4-Difluorophenyl)-1-[(2-methyl-3-pyridyl)methyl]pyrazolo[4,3-b]pyridine] stands 3620 nM; under `Cc1cncc(Cn2ncc3ncc(-c4ccc(F)c(F)c4)cc32)c1` [Example 189, 6-(3,4-Difluorophenyl)-1-[(5-methyl-3-pyridyl)methyl]pyrazolo[4,3-b]pyridine], 70 nM; under `Cc1ccncc1Cn1ncc2ncc(-c3ccc(F)c(F)c3)cc21` [Example 190, 6-(3,4-Difluorophenyl)-1-[(4-methyl-3-pyridyl)methyl]pyrazolo[4,3-b]pyridine trifluoroacetate salt], 158 nM. Under `Fc1ccc(Cn2ncc3ncc(-c4ccc(F)c(F)c4)cc32)cn1` [Example 191, 6-(3,4-Difluorophenyl)-1-[(6-fluoro-3-pyridyl)methyl]pyrazolo[4,3-b]pyridine] stands 176 nM; under `Fc1cncc(Cn2ncc3ncc(-c4ccc(F)c(F)c4)cc32)c1` [Example 192, 6-(3,4-Difluorophenyl)-1-[(5-fluoro-3-pyridyl)methyl]pyrazolo[4,3-b]pyridine trifluoroacetate salt], 48 nM. Then `COc1cncc(Cn2ncc3ncc(-c4ccc(F)c(F)c4)cc32)c1` [Example 193, 6-(3,4-Difluorophenyl)-1-[(5-methoxy-3-pyridyl)methyl]pyrazolo[4,3-b]pyridine], with 277 nM; and `Fc1ccc(-c2cnc3cnn(Cc4cncc(OC(F)F)c4)c3c2)cc1F` [Example 194, 1-[[5-(Difluoromethoxy)-3-pyridyl]methyl]-6-(3,4-difluorophenyl)pyrazolo[4,3-b]pyridine], with 850 nM; and `Fc1cncc(Cn2ncc3ncc(-c4ccc(F)c(Cl)c4)cc32)c1` [Example 195, 6-(3-Chloro-4-fluoro-phenyl)-1-[(5-fluoro-3-pyridyl)methyl]pyrazolo[4,3-b]pyridine], with 25 nM. Turning to `COc1cncc(Cn2ncc3ncc(-c4ccc(F)c(Cl)c4)cc32)c1` [Example 196, 6-(3-Chloro-4-fluoro-phenyl)-1-[(5-methoxy-3-pyridyl)methyl]pyrazolo[4,3-b]pyridine], the IC50 stood at 152 nM.
